The results in this text go back to patent US20260356804A1, “SODIUM CHANNEL BLOCKING COMPOUNDS, DERIVATIVES THEREOF, AND METHODS OF THEIR USE” (LATIGO BIOTHERAPEUTICS, INC., priority 2022, published 2026).

Read-outs that look alike come from different tables or passages of the source.

The assay addresses T1, human Nav1.8/b3 (Homo sapiens, UniProt Q9Y5Y9).
T1 construct: expressed in transfected cells; host or cells: CHO
Kind of assay: Compound Profiling Human NaV1.8/β3 Cell Line—SyncroPatch384PE Assay (automated patch clamp, stably transfected CHO cells). Type of assay: cell-based. To be noted: Nav1.8/b3 CHO cells.

[1] abbreviates: P1 (IC50, resting state block), P1 measurement, resting state block, holding potential −120 mV, third set of compounds.
Setting [2] is: P2 (IC50, inactivated state block), P2 measurement, inactivated state block, inactivation step −35 mV 10 sec, third set of compounds.
Where [3] appears, read: P1 (IC50, resting state block), P1 measurement, resting state block, holding potential −120 mV, first set of compounds.
Where [4] appears, read: P2 (IC50, inactivated state block), P2 measurement, inactivated state block, inactivation step −35 mV 10 sec, first set of compounds.
The mark [5] stands for this setting: P1 measurement, resting state block, holding potential −120 mV, third set of compounds, read-out: P1 (IC50, resting state block).
Where [6] appears, read: P2 measurement, inactivated state block, inactivation step −35 mV 10 sec, third set of compounds, read-out: P2 (IC50, inactivated state block).

T1 sequence (Q9Y5Y9 whole entry): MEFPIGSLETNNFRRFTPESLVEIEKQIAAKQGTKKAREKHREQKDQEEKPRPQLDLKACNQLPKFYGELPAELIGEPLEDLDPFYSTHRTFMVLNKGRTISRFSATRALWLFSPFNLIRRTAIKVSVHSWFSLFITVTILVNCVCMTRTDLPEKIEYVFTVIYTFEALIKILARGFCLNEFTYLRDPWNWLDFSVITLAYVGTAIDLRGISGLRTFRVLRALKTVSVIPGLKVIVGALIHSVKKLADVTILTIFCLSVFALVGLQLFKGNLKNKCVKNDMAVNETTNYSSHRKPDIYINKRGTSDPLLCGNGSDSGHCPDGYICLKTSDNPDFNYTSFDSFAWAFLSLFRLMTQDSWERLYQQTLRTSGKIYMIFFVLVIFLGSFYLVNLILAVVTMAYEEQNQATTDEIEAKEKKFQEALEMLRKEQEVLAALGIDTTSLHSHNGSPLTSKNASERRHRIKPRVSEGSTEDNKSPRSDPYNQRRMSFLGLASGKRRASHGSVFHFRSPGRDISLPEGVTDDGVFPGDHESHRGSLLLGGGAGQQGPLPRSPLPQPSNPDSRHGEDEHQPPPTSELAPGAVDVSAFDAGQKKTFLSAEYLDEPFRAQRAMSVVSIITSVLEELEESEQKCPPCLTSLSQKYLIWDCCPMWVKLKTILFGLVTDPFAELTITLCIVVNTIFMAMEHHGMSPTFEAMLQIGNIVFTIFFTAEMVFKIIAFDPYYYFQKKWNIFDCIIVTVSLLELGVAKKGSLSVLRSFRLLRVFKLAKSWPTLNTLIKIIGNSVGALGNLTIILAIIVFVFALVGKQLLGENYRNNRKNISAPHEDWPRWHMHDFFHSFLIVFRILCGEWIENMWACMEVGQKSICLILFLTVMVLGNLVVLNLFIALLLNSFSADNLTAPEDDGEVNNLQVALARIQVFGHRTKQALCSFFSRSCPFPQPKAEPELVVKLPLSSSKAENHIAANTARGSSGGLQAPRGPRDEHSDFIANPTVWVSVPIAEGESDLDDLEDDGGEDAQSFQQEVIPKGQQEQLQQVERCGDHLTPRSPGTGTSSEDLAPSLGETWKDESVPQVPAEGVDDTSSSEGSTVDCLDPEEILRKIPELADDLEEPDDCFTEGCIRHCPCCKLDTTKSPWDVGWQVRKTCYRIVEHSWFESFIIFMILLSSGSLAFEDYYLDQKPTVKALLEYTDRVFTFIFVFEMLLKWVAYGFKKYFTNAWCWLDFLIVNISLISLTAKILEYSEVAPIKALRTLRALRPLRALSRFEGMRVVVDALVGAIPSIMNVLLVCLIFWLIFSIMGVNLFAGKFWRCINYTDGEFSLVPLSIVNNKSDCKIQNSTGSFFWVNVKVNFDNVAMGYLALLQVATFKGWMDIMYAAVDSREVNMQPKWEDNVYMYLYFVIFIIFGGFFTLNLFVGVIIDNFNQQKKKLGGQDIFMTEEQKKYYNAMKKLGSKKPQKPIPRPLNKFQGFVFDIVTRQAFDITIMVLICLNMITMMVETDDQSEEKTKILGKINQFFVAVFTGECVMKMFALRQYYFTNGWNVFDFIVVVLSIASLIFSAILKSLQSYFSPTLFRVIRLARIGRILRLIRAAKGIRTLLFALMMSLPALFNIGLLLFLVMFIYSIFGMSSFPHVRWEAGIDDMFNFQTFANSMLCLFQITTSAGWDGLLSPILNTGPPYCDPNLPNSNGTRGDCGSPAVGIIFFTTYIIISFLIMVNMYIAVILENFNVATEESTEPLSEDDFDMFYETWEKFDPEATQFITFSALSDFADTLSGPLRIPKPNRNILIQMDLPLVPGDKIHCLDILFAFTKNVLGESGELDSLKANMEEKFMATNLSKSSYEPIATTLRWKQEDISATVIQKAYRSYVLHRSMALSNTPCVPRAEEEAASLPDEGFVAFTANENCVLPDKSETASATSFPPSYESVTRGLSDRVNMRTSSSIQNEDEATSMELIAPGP
T1 sequence (Q9NY72 23-215 partner): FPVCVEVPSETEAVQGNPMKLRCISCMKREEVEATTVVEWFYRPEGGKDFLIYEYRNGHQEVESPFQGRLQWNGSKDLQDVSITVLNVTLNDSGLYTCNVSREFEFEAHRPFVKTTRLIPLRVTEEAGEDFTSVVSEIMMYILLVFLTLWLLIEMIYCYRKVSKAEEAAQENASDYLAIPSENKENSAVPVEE

Take `Cc1nc(F)ccc1Oc1ncc(C(F)(F)F)c(C)c1C(=O)Nc1cccc([S@@](C)(=O)=NC(=O)CN2CC(F)(F)C2)c1` [Example 29D, (R)—N-(3-(N-(2-(3,3-difluoroazetidin-1-yl)acetyl)-S-methylsulfonimidoyl)phenyl)-2-((6-fluoro-2-methylpyridin-3-yl)oxy)-4-methyl-5-(trifluoromethyl)nicotinamide]: the concentration for half-maximal inhibition (IC50) (as a rule, the midpoint of a concentration-inhibition curve) (P1 (IC50, resting state block), P1 measurement, resting state block, holding potential −120 mV, fourth set of compounds) was below 5 nM and the IC50 (P2 (IC50, inactivated state block), P2 measurement, inactivated state block, inactivation step −35 mV 10 sec, fourth set of compounds) is below 5 nM.

Regarding `COc1c(Oc2cc(C(F)(F)F)nnc2C(=O)Nc2cccc([S+](C)[O-])c2)ccc(F)c1F` (centres unmarked) [Example 30C, 4-(3,4-difluoro-2-methoxyphenoxy)-N-(3-(methylsulfinyl)phenyl)-6-(trifluoromethyl)pyridazine-3-carboxamide], the concentration for half-maximal inhibition (IC50) reads like this: under setting [1], above 200 nM; under setting [2], above 200 nM.

`COc1c(Oc2cc(C(F)(F)F)nnc2C(=O)Nc2cccc(S(C)(=N)=O)c2)ccc(F)c1F` (centres unmarked) [Example 31C, 4-(3,4-difluoro-2-methoxyphenoxy)-N-(3-(S-methylsulfonimidoyl)phenyl)-6-(trifluoromethyl)pyridazine-3-carboxamide]: the half-inhibitory concentration (IC50) under setting [1] was 100 to 200 nM and the half-maximal inhibitory concentration (IC50) under setting [2] was in the range of 100 to 200 nM.

Regarding `COc1c(Oc2cc(C(F)(F)F)nnc2C(=O)Nc2cccc(S(C)(=O)=O)c2)ccc(F)c1F` [Example 32C, 4-(3,4-difluoro-2-methoxyphenoxy)-N-(3-(methylsulfonyl)phenyl)-6-(trifluoromethyl)pyridazine-3-carboxamide], the IC50 lay in the range of 50 to 100 nM under setting [1] and 50 to 100 nM under setting [2].

Turning to `Cc1nc(F)ccc1Oc1cc(C(F)(F)F)cc(F)c1C(=O)Nc1ccnc([S@@](C)(=N)=O)c1` [Example 33A], the IC50 fell in the range of 5 to 50 nM under setting [3] and 5 to 50 nM under setting [4].

The molecule `CN=[S@](C)(=O)c1cccc(NC(=O)c2c(Oc3ccc(F)nc3C)ncc(C(F)(F)F)c2C)c1` [Example 33C, (R)—N-(3-(N,S-dimethylsulfonimidoyl)phenyl)-2-((6-fluoro-2-methylpyridin-3-yl)oxy)-4-methyl-5-(trifluoromethyl)nicotinamide] displayed a half-maximal inhibitory concentration (IC50) under setting [1] of 5 to 50 nM and a half-maximal inhibitory concentration (IC50) under setting [2] below 5 nM.

As to `Cc1nc(F)ccc1Oc1cc(C(F)(F)F)c(Cl)c(F)c1C(=O)Nc1ccnc([S@@](C)(=N)=O)c1` [Example 34A], the half-inhibitory concentration (IC50) was below 5 nM under setting [3] and below 5 nM under setting [4].

`COc1cc(C#N)ccc1Oc1cc(C(F)(F)F)nnc1C(=O)Nc1cccc(S(C)(=N)=O)c1` (centres unmarked) [Example 34C, 4-(4-cyano-2-methoxyphenoxy)-N-(3-(S-methylsulfonimidoyl)phenyl)-6-(trifluoromethyl)pyridazine-3-carboxamide]: the IC50 is, setting by setting: under setting [1], above 200 nM; under setting [2], above 200 nM.

Take `C[S@@](=N)(=O)c1cc(NC(=O)c2cc(Cl)c(C(F)(F)F)cc2OCC(F)(F)F)ccn1` [Example 35A]: the IC50 was in the range of 50 to 100 nM (P1 measurement, resting state block, holding potential −120 mV, first set of compounds, read-out: P1 (IC50, resting state block)) and 50 to 100 nM (P2 measurement, inactivated state block, inactivation step −35 mV 10 sec, first set of compounds, read-out: P2 (IC50, inactivated state block)).

Consider `Cc1nc(F)ccc1Oc1nc(C(F)(F)F)c(Cl)c(C)c1C(=O)Nc1cccc([S@](C)(=N)=O)c1` [Example 35C, (R)-5-chloro-2-((6-fluoro-2-methylpyridin-3-yl)oxy)-4-methyl-N-(3-(S-methylsulfonimidoyl)phenyl)-6-(trifluoromethyl)nicotinamide], for which the IC50 under setting [1] was below 5 nM and the IC50 under setting [2] is below 5 nM.

Take `Cc1nc(F)ccc1Oc1cc(C(F)(F)F)cc(F)c1C(=O)Nc1ccc(C(N)=O)cc1` [Example 36A]: the 50% inhibitory concentration (IC50) runs as follows: under setting [3], 5 to 50 nM; under setting [4], 5 to 50 nM.

For `Cc1nc(F)ccc1Oc1c(C(F)(F)F)ncc(F)c1C(=O)Nc1cccc([S@](C)(=N)=O)c1` [Example 36C, (R)-5-fluoro-3-((6-fluoro-2-methylpyridin-3-yl)oxy)-N-(3-(S-methylsulfonimidoyl)phenyl)-2-(trifluoromethyl)isonicotinamide], the concentration for half-maximal inhibition (IC50) by setting is: under setting [1], above 200 nM; under setting [2], above 200 nM.

Take `Cc1nc(F)ccc1Oc1cc(C(F)(F)F)c(Cl)c(F)c1C(=O)Nc1ccc(C(N)=O)cc1` [Example 37A]: the IC50 is below 5 nM under setting [3] and below 5 nM under setting [4].

Turning to `Cc1nc(F)ccc1Oc1c(C2CC2)ncc(F)c1C(=O)Nc1cccc([S@](C)(=N)=O)c1` [Example 37C, (R)-2-cyclopropyl-5-fluoro-3-((6-fluoro-2-methylpyridin-3-yl)oxy)-N-(3-(S-methylsulfonimidoyl)phenyl)isonicotinamide], the concentration for half-maximal inhibition (IC50) is, setting by setting: under setting [5], above 200 nM; under setting [6], above 200 nM.

Take `Cc1nc(F)ccc1Oc1cc(C2CC2)c(C(F)(F)F)c(C)c1C(=O)Nc1ccnc([S@@](C)(=N)=O)c1` [Example 38A]: the half-maximal inhibitory concentration (IC50) is below 5 nM under setting [3] and below 5 nM under setting [4].

In the case of `COc1cc(C#N)ccc1Oc1cc(C(F)(F)F)nnc1C(=O)Nc1cccc(S(C)(=O)=O)c1` [Example 38C, 4-(4-cyano-2-methoxyphenoxy)-N-(3-(methylsulfonyl)phenyl)-6-(trifluoromethyl)pyridazine-3-carboxamide], the IC50 is above 200 nM under setting [1] and 100 to 200 nM under setting [2].

With `Cc1nc(F)ccc1Oc1cc(C2CC2)c(C(F)(F)F)c(C)c1C(=O)Nc1ccnc([S@](C)(=N)=O)c1` [Example 39A], the 50% inhibitory concentration (IC50) reads like this: under setting [3], below 5 nM; under setting [4], below 5 nM.

Consider `Cc1cc(C#N)ccc1Oc1cc(C(F)(F)F)nnc1C(=O)Nc1cccc(S(C)(=N)=O)c1` (centres unmarked) [Example 39C, 4-(4-cyano-2-methylphenoxy)-N-(3-(S-methylsulfonimidoyl)phenyl)-6-(trifluoromethyl)pyridazine-3-carboxamide], for which the 50% inhibitory concentration (IC50) runs as follows: under setting [1], above 200 nM; under setting [2], above 200 nM.

Regarding `Cc1nc(F)ccc1Oc1cc(C(F)(F)F)cc(F)c1C(=O)Nc1ccnc([S@](C)(=N)=O)c1` [Example 40A], the half-inhibitory concentration (IC50) is 5 to 50 nM under setting [3] and 5 to 50 nM under setting [4].

Consider `Cc1nc(F)ccc1Oc1ncc(C(F)(F)F)c(C)c1C(=O)Nc1cccc(S(C)(=N)=N)c1` [Example 40C, ((3-(2-((6-fluoro-2-methylpyridin-3-yl)oxy)-4-methyl-5-(trifluoromethyl)nicotinamido)phenyl)(methyl)-l6-sulfanediylidene)diamine], for which the IC50 under setting [1] is below 5 nM and the IC50 under setting [2] was below 5 nM.

In the case of `Cc1nc(F)ccc1Oc1cc(C(F)(F)F)c(Cl)c(F)c1C(=O)Nc1ccnc([S@](C)(=N)=O)c1` [Example 41A], the IC50 by setting is: under setting [3], below 5 nM; under setting [4], below 5 nM.

For the molecule `Cc1nc(F)ccc1Oc1cc(C2CC2)c(C(F)(F)F)c(C)c1C(=O)Nc1cccc([S@@](C)(=N)=O)c1` [Example 42A], the half-maximal inhibitory concentration (IC50) runs as follows: under setting [3], below 5 nM; under setting [4], below 5 nM.

Take `Cc1nc(F)ccc1Oc1cc(C(F)(F)F)c(Cl)c(F)c1C(=O)Nc1cccc([S@](C)(=N)=O)c1` [Example 43A]: the IC50 runs as follows: under setting [3], below 5 nM; under setting [4], below 5 nM.

As to `Cc1nc(F)ccc1Oc1ncc(C(F)(F)F)c(C)c1C(=O)Nc1cccc([S@@](C)(=O)=NCCN)c1` [Example 43C, (R)—N-(3-(N-(2-aminoethyl)-S-methylsulfonimidoyl)phenyl)-2-((6-fluoro-2-methylpyridin-3-yl)oxy)-4-methyl-5-(trifluoromethyl)nicotinamide], the IC50 was below 5 nM under setting [1] and below 5 nM under setting [2].

For `C[S@@](=N)(=O)c1cc(NC(=O)c2c(F)cc(C(F)(F)F)cc2Oc2ccc(OC(F)(F)F)cc2)ccn1` [Example 44A], the IC50 was below 5 nM under setting [3] and below 5 nM under setting [4].

With `Cc1nc(F)ccc1Oc1cnc(C(F)(F)F)c(C)c1C(=O)Nc1cccc([S@](C)(=N)=O)c1` [Example 44C, (R)-5-((6-fluoro-2-methylpyridin-3-yl)oxy)-3-methyl-N-(3-(S-methylsulfonimidoyl)phenyl)-2-(trifluoromethyl)isonicotinamide], the half-inhibitory concentration (IC50) under setting [5] fell in the range of 5 to 50 nM and the half-inhibitory concentration (IC50) under setting [6] was 5 to 50 nM.

For the molecule `C[S@@](=N)(=O)c1cc(NC(=O)c2c(Oc3ccc(OC(F)(F)F)cc3)cc(C(F)(F)F)c(Cl)c2F)ccn1` [Example 45A], the 50% inhibitory concentration (IC50) by setting is: under setting [3], below 5 nM; under setting [4], below 5 nM.

As for `Cc1nc(F)ccc1Oc1cnc(C(F)(F)F)c(Cl)c1C(=O)Nc1cccc([S@](C)(=N)=O)c1` [Example 45C, (R)-3-chloro-5-((6-fluoro-2-methylpyridin-3-yl)oxy)-N-(3-(S-methylsulfonimidoyl)phenyl)-2-(trifluoromethyl)isonicotinamide], the IC50 under setting [5] is below 5 nM and the IC50 under setting [6] is below 5 nM.

In turn, `C[S@@](=N)(=O)c1cccc(NC(=O)c2c(Oc3ccc(OC(F)(F)F)cc3)cc(C(F)(F)F)c(Cl)c2Oc2ccc(OC(F)(F)F)cc2)c1` [Example 46A] came in with a half-maximal inhibitory concentration (IC50) under setting [3] of 100 to 200 nM and an IC50 under setting [4] of 100 to 200 nM.

As to `Cc1nc(F)ccc1Oc1cc(C(F)(F)F)c(Cl)c(F)c1C(=O)NC12CC(C(N)=O)(C1)C2` [Example 47A], the IC50 under setting [3] was above 200 nM and the concentration for half-maximal inhibition (IC50) under setting [4] was above 200 nM.

Consider `Cc1nc(F)ccc1Oc1cc(C(F)(F)F)c(Cl)cc1C(=O)Nc1ccc([S@@](C)(=N)=O)cc1` [Example 48A], for which the IC50 lay within 50 to 100 nM under setting [3] and 50 to 100 nM under setting [4].
